BindingDB's records for doi:10.1021/jm00008a008 (Arris Pharmaceutical, 1995)

Assay: Tested for activity against 5-hydroxytryptamine 1A receptor from bovine hippocampus

| Structure (SMILES) | Ki [nM] |
| --- | --- |
| COc1cccc2c1C[C@H]1CCN(Cc3ccccc3)[C@H]1C2 [1-Benzyl-5-methoxy-2,3,3a,4,9,9a-hexahydro-1H-benzo[f]indole] | 1000 |
| COc1cccc2c1C[C@H]1CCN[C@H]1C2 [5-Methoxy-2,3,3a,4,9,9a-hexahydro-1H-benzo[f]indole] | 1000 |
| CCCN1[C@H](C)C[C@H]2c3c(O)cccc3CC[C@H]21 [(2R,3aR,9bS)-2-Methyl-3-propyl-2,3,3a,4,5,9b-hexahydro-1H-benzo[e]indol-9-ol] | 16 |
| COc1cccc2c1CC[C@@H]1[C@H]2CCN1CC1CC1 [(3aR,9bS)-3-Cyclopropylmethyl-6-methoxy-2,3,3a,4,5,9b-hexahydro-1H-benzo[e]indole] | 1000 |
| CCCN1CC[C@H]2c3c(cccc3OC)CC[C@@H]21 [(3aS,9bS)-9-Methoxy-3-propyl-2,3,3a,4,5,9b-hexahydro-1H-benzo[e]indole] | 0.2 |
